Assay results taken from article PMC7405012, “Detection of Chaetomium globosum, Ch. cochliodes and Ch. rectangulare during the Diversity Tracking of Mycotoxin-Producing Chaetomium-like Isolates Obtained in Buildings in Finland” (Toxins, 2020).
≈ marks a conversion by molar mass, not a printed value. Like-named read-outs stand apart in the source and are kept apart here.

Tests used:
Ch. globosum MH 52 = experiment: Resistance to biocides: ascospore germination; assay type: cell-based, Chaetomium globosum; settings: strain MH 52, indoor Ch. globosum
Method: (§1) The toxicity of biocides and chemicals towards the indoor Chaetomium-like isolates and the reference indoor strains of the genera Aspergillus, Paecilomyces, Penicillium and Trichoderma was assessed in parallel with the six parameters presented in the Supplementary Materials: (1) germ tube assay (Figure S3); (2) estimation of turbidity (Figure S4); (3) visual emission of fluorescence (excitation at 360 nm); (4) visual resporulation of conidia; (5) inhibition of glucose consumption; and (6) resazurin reduction. All assays were performed in malt extract broth (12 g L^−1 malt extract, 7.2 µmol mL^−1 glucose, pH 5.5; Scharlab, Barcelona, Spain) in 96-well microtiter plates as described for the ICP assay.
(§2) The assays measuring inhibition of germination of conidia were done with spore suspensions of 1–2 × 10^6 fungal spores mL−^1. The tests were performed in malt extract broth (Oxoid, Hampshire United Kingdom) 12 g in 1 L, pH 5.5, glucose 7.1 mmol L^−1, and performed on microtiter plates as described by Bencsik et al. for the ICP assay. The germ tube germination is visualized in Figure S3, and the tests estimating turbidity and emission of fluorescence provoked by the germinated and metabolically active conidia and C. globosum ascospores are visualized in Figures S4 and S5. Examples of the tests estimating fluorescence emission, turbidity and re-sporulation of conidia and ascospores are compared in Figure S5. The difference of the endpoints measured with the different assays was between […]. The resazurin reduction assays (Figure S6) were performed as described for the ICP assay, except that the microtiter plates were visually inspected for the change of the blue/violet color of resazurin (indicating inhibition of germination of the exposed conidia) to the […] (indicating metabolic activity and germination of the exposed conidia).
(§3) The formation of germ tubes was inspected by a phase-contrast microscope (Olympus CKX41, Tokyo, Japan; magnification 400×) and an image recording software (Cellsense® standard version 11.0.06, Olympus Soft Imaging Solutions GmbH, Münster, Germany, 2012) after 1 and 2 days of incubation at 28 °C. The EC50 corresponded to the inhibition of 50% (estimated as the concentration between EC0 and EC100) of the conidia compared to the ethanol control (the growth medium containing 1% of ethanol). The tests were run in triplicate and calibrated with triclosan (CAS: 3380-34-5; Sigma Chemical Co., St. Louis, MO, USA) giving a mean SD of ±<20%.

Ch. globosum C22/LM = experiment: Resistance to biocides: ascospore germination; assay type: cell-based, Chaetomium globosum; settings: strain C22/LM, indoor Ch. globosum
Method: as §1, §2, §3

Ch. globosum MO9 = experiment: Resistance to biocides: ascospore germination; assay type: cell-based, Chaetomium globosum; settings: strain MO9, indoor Ch. globosum
Method: as §1, §2, §3

Ch. globosum 2b/26 = experiment: Resistance to biocides: ascospore germination; assay type: cell-based, Chaetomium globosum; settings: strain 2b/26, indoor Ch. globosum
Method: as §1, §2, §3

Ch. globosum RUK10 = experiment: Resistance to biocides: ascospore germination; assay type: cell-based, Chaetomium globosum; settings: strain RUK10, indoor Ch. globosum
Method: as §1, §2, §3

Ch. cochliodes OT7b = experiment: Resistance to biocides: ascospore germination; assay type: cell-based; settings: strain OT7b, indoor Ch. cochliodes
Method: as §1, §2, §3

Ch. rectangulare M015 = experiment: Resistance to biocides: ascospore germination; assay type: cell-based; settings: strain M015, indoor Ch. rectangulare
Method: as §1, §2, §3

Ch. cochliodes OT7 = experiment: Resistance to biocides: ascospore germination; assay type: cell-based; settings: strain OT7, indoor Ch. cochliodes
Method: as §1, §2, §3

[1] = system: Aspergillus calidoustus MH4; experiment: Resistance to biocides: conidial germination; assay type: cell-based; settings: strain MH4, indoor Aspergillus calidoustus
Method: as §1, §2, §3

[2] = system: Aspergillus section Flavi 1/37; experiment: Resistance to biocides: conidial germination; assay type: cell-based; settings: strain 1/37, indoor Aspergillus section Flavi
Method: as §1, §2, §3

[3] = system: Aspergillus versicolor Gas/226; experiment: Resistance to biocides: conidial germination; assay type: cell-based; settings: strain Gas/226, Aspergillus versicolor
Method: as §1, §2, §3

[4] = system: Aspergillus section Nigri Asp33b; experiment: Resistance to biocides: conidial germination; assay type: cell-based; settings: strain Asp33b, indoor Aspergillus section Nigri
Method: as §1, §2, §3

[5] = system: Aspergillus section Nigri Asp 32; experiment: Resistance to biocides: conidial germination; assay type: cell-based; settings: strain Asp 32, indoor Aspergillus section Nigri
Method: as §1, §2, §3

Penicillium sp. 5/skk = experiment: Resistance to biocides: conidial germination; assay type: cell-based; settings: strain 5/skk, indoor Penicillium sp.
Method: as §1, §2, §3

[6] = system: Indoor Trichoderma atroviride KIV10; experiment: Resistance to biocides: conidial germination; assay type: cell-based; settings: strain KIV10, indoor Trichoderma atroviride
Method: as §1, §2, §3

[7] = system: Aspergillus westerdijkiae AW/KL; experiment: Resistance to biocides: conidial germination; assay type: cell-based; settings: strain AW/KL
Method: as §1, §2, §3

[8] = system: Trichoderma citrinoviride SJ40; experiment: Resistance to biocides: conidial germination; assay type: cell-based; settings: strain SJ40, indoor Trichoderma citrinoviride
Method: as §1, §2, §3

Penicillium sp. 35/skk = experiment: Resistance to biocides: conidial germination; assay type: cell-based; settings: strain 35/skk, indoor Penicillium sp.
Method: as §1, §2, §3

[9] = system: Trichoderma longibrachiatum THG; experiment: Resistance to biocides: conidial germination; assay type: cell-based; settings: strain THG, indoor Trichoderma longibrachiatum
Method: as §1, §2, §3

[10] = system: Aspergillus westerdijkiae PP2; experiment: Resistance to biocides: conidial germination; assay type: cell-based; settings: strain PP2, Aspergillus westerdijkiae
Method: as §1, §2, §3

Penicillium sp. 20b/skk = experiment: Resistance to biocides: conidial germination; assay type: cell-based; settings: strain 20b/skk, indoor Penicillium sp.
Method: as §1, §2, §3

Penicillium sp. Vaip/skk = experiment: Resistance to biocides: conidial germination; assay type: cell-based; settings: strain Vaip/skk, indoor Penicillium sp.
Method: as §1, §2, §3

[11] = system: Indoor Trichoderma atroviride H1/226; experiment: Resistance to biocides: conidial germination; assay type: cell-based; settings: strain H1/226, indoor Trichoderma atroviride
Method: as §1, §2, §3

[12] = system: Paecilomyces sp. Pec1/his; experiment: Resistance to biocides: conidial germination; assay type: cell-based; settings: strain Pec1/his, indoor Paecilomyces sp.
Method: as §1, §2, §3

[13] = system: Indoor Trichoderma atroviride Tri335; experiment: Resistance to biocides: conidial germination; assay type: cell-based; settings: strain Tri335, indoor Trichoderma atroviride
Method: as §1, §2, §3

[14] = Chaetomium globosum, MH52, read-out: EC50
[15] = Chaetomium globosum, read-out: EC50

In the case of `OCCOc1ccccc1` [Phenoxy-ethanol, phenoxyethanol], the EC50 (Ch. globosum MH 52; [14]) was 1500 µg/mL (≈ 10900 µM), the EC50 (Ch. globosum C22/LM; [15]) was 1500 µg/mL (≈ 10900 µM) and the EC50 (Ch. globosum MO9; [15]) was 700 µg/mL (≈ 5070 µM). The EC50 (Ch. globosum 2b/26; [15]) was 1500 µg/mL (≈ 10900 µM), the EC50 (Ch. globosum RUK10; [15]) was 1500 µg/mL (≈ 10900 µM) and the EC50 (Ch. cochliodes OT7b; read-out: EC50) was 3000 µg/mL (≈ 21700 µM). For the same molecule, the EC50 (Ch. rectangulare M015; read-out: EC50) was 1500 µg/mL (≈ 10900 µM), the EC50 (Ch. cochliodes OT7; read-out: EC50) was 3000 µg/mL (≈ 21700 µM) and the EC50 ([1]; read-out: EC50) was 3200 µg/mL (≈ 23200 µM). It also gave an EC50 ([2]; FLAVI1/37, read-out: EC50) of 1500 µg/mL (≈ 10900 µM), an EC50 ([3]; read-out: EC50) of 400 µg/mL (≈ 2900 µM) and an EC50 ([4]; read-out: EC50) of 3000 µg/mL (≈ 21700 µM). The EC50 ([5]; read-out: EC50) was 3000 µg/mL (≈ 21700 µM), the EC50 (Penicillium sp. 5/skk; SP.5/SKK, read-out: EC50) was 1500 µg/mL (≈ 10900 µM) and the EC50 ([6]; read-out: EC50) was 3000 µg/mL (≈ 21700 µM). It also gave an EC50 ([7]; read-out: EC50) of 1500 µg/mL (≈ 10900 µM), an EC50 ([8]; read-out: EC50) of 1500 µg/mL (≈ 10900 µM) and an EC50 (Penicillium sp. 35/skk; SP.35/SKK, read-out: EC50) of 350 µg/mL (≈ 2530 µM). The EC50 ([9]; read-out: EC50) was 1500 µg/mL (≈ 10900 µM), the EC50 ([10]; read-out: EC50) was 1500 µg/mL (≈ 10900 µM) and the EC50 (Penicillium sp. 20b/skk; SP.20B/SKK, read-out: EC50) was 1500 µg/mL (≈ 10900 µM). For the same molecule, the EC50 (Penicillium sp. Vaip/skk; read-out: EC50) was 800 µg/mL (≈ 5790 µM), the EC50 ([11]; read-out: EC50) was 1500 µg/mL (≈ 10900 µM) and the EC50 ([12]; read-out: EC50) was 3000 µg/mL (≈ 21700 µM). The EC50 ([13]; read-out: EC50) was 3000 µg/mL (≈ 21700 µM).
`Oc1cc(Cl)ccc1Oc1ccc(Cl)cc1Cl` [Triclosan, 5-Chloro-2-(2,4-dichlorophenoxy)phenol] gave an EC50 (Ch. globosum MH 52; [14]) of 2 µg/mL (≈ 6.91 µM), an EC50 (Ch. globosum C22/LM; [15]) of 4 µg/mL (≈ 13.8 µM) and an EC50 (Ch. globosum MO9; [15]) of 2 µg/mL (≈ 6.91 µM). For the same molecule, the EC50 (Ch. globosum 2b/26; [15]) was 4 µg/mL (≈ 13.8 µM), the EC50 (Ch. globosum RUK10; [15]) was 2 µg/mL (≈ 6.91 µM) and the EC50 (Ch. cochliodes OT7b; read-out: EC50) was 4 µg/mL (≈ 13.8 µM). The EC50 (Ch. rectangulare M015; read-out: EC50) was 2 µg/mL (≈ 6.91 µM), the EC50 (Ch. cochliodes OT7; read-out: EC50) was 4 µg/mL (≈ 13.8 µM) and the EC50 ([1]; read-out: EC50) was 16 µg/mL (≈ 55.3 µM). For the same molecule, the EC50 ([2]; FLAVI1/37, read-out: EC50) was 8 µg/mL (≈ 27.6 µM), the EC50 ([3]; read-out: EC50) was 16 µg/mL (≈ 55.3 µM) and the EC50 ([4]; read-out: EC50) was 16 µg/mL (≈ 55.3 µM). It also gave an EC50 ([5]; read-out: EC50) of 16 µg/mL (≈ 55.3 µM), an EC50 (Penicillium sp. 5/skk; SP.5/SKK, read-out: EC50) of 2 µg/mL (≈ 6.91 µM) and an EC50 ([6]; read-out: EC50) of 30 µg/mL (≈ 104 µM). For the same molecule, the EC50 ([7]; read-out: EC50) was 16 µg/mL (≈ 55.3 µM), the EC50 ([8]; read-out: EC50) was 8 µg/mL (≈ 27.6 µM) and the EC50 ([9]; read-out: EC50) was 16 µg/mL (≈ 55.3 µM). For the same molecule, the EC50 ([10]; read-out: EC50) was 16 µg/mL (≈ 55.3 µM), the EC50 (Penicillium sp. 20b/skk; SP.20B/SKK, read-out: EC50) was 2 µg/mL (≈ 6.91 µM) and the EC50 (Penicillium sp. Vaip/skk; read-out: EC50) was 4 µg/mL (≈ 13.8 µM). It also gave an EC50 ([11]; read-out: EC50) of 16 µg/mL (≈ 55.3 µM), an EC50 ([12]; read-out: EC50) of 30 µg/mL (≈ 104 µM) and an EC50 ([13]; read-out: EC50) of 30 µg/mL (≈ 104 µM).
Molecule “polyhexamethylene biguanide hydrochloride [PHMB]” has an EC50 (Ch. globosum MH 52) of 4 µg/mL, an EC50 (Ch. globosum C22/LM) of 8 µg/mL and an EC50 (Ch. globosum MO9) of 4 µg/mL. For the same molecule, the EC50 (Ch. globosum 2b/26) was 8 µg/mL, the EC50 (Ch. globosum RUK10) was 4 µg/mL and the EC50 (Ch. cochliodes OT7b) was 8 µg/mL. For the same molecule, the EC50 (Ch. rectangulare M015) was 4 µg/mL, the EC50 (Ch. cochliodes OT7) was 8 µg/mL and the EC50 [1] was 8 µg/mL. For the same molecule, the EC50 [2] was 120 µg/mL, the EC50 [3] was 60 µg/mL and the EC50 [4] was 30 µg/mL. For the same molecule, the EC50 [5] was 60 µg/mL, the EC50 (Penicillium sp. 5/skk) was 8 µg/mL and the EC50 [6] was 4 µg/mL. The EC50 [7] was 60 µg/mL, the EC50 [8] was 2 µg/mL and the EC50 (Penicillium sp. 35/skk) was 30 µg/mL. It also gave an EC50 [9] of 1 µg/mL, an EC50 [10] of 60 µg/mL and an EC50 (Penicillium sp. 20b/skk) of 30 µg/mL. It also gave an EC50 (Penicillium sp. Vaip/skk) of 8 µg/mL, an EC50 [11] of 2 µg/mL and an EC50 [12] of 30 µg/mL. The EC50 [13] was 4 µg/mL.
